These are literature values, as cited in patent US20070128260A1, “Aqueous polymer dispersions for stabilizing actives” (priority 2005, published 2007).

Structures can show the parent of a compound that is named as a salt. Where two headings read alike, the source gives them in different places.

Consider `CC(=O)N[C@H]1[C@H]([C@H](O)[C@H](O)CO)OC(C(=O)O)=C[C@@H]1N=C(N)N` [Zanamivir], for which, under “20° C.”, the water sol. is 18 mg/mL.
In the case of `CC(C)[C@H](N)C(=O)OCCOCn1cnc2c(=O)[nH]c(N)nc21` [valacyclovir], the water sol. (25° C.) is listed as 174 mg/mL.
Consider `Nc1nc2c(ncn2COCCO)c(=O)[nH]1` [Acylovir], for which the water sol. (37° C.) is recorded as 2.5 mg/mL.
As to `Nc1ccn([C@@H]2CS[C@H](CO)O2)c(=O)n1` [Lamivudine], the water sol. (20° C.) is reported as 70 mg/mL.
As to `Nc1nc(NC2CC2)c2ncn([C@H]3C=C[C@@H](CO)C3)c2n1` [Abacavir sulfate], the water sol. (25° C.) is 77 mg/mL.
Turning to `CC(C)CN(C[C@@H](OP(=O)(O)O)[C@H](Cc1ccccc1)NC(=O)O[C@H]1CCOC1)S(=O)(=O)c1ccc(N)cc1` [fosamprenavir], the water sol. (25° C.) is 0.31 mg/mL.
As to `Cc1cn([C@H]2C[C@H](N=[N+]=[N-])[C@@H](CO)O2)c(=O)[nH]c1=O` [Zidovudine], the water sol. (25° C.) is reported as 20.1 mg/mL.
In the case of `CC(C)CN(C[C@@H](O)[C@H](Cc1ccccc1)NC(=O)O[C@H]1CCOC1)S(=O)(=O)c1ccc(N)cc1` [Amprenavir], the water sol. (25° C.) is reported as 0.04 mg/mL.
